Experimental data taken from patent US10525064B2, “Anticancer adjuvant containing panaxadiol ginsenocide compound” (priority 2015, dated 2020).
Converted amounts (≈) assume the structure as drawn.

Legend:
[1] = system: cytochrome-C release in MCF-7 cells; test: Cytochrome-C release from mitochondria, immunofluorescent staining; type: cell-based, human; conditions: for level of cytochrome-C release compared to doxorubicin treatment alone: then doxorubicin 5 μg/mL 4 hours; for cells in which cytochrome-C was released, of the entire cells: 6 hours after the treatment, FIG. 4B
Description: MCF-7 cells were charged with a medium containing C-K or PPD (10 μg/mL) and cultured for 24 hours, and the medium was replaced with a medium containing doxorubicin (5 μg/mL) and cultured for 0 hours or 4 hours. The cells, upon completion of culture, were fixed with 4% paraformaldehyde, perforated by adding 0.5% Triton X-100 solution thereto, and the cells were immunostained with anti-cytochrome-C antibody for 30 minutes. Upon completion of the staining, the cells were washed with PBS, reacted with fluorescently-labeled secondary antibody for 30 minutes, washed with PBS, and then photographed using a confocal microscope to measure the levels of fluorescence developed (FIG. 4A).
In this regard, the present inventors have attempted to confirm whether the level of cytochrome-C release can be changed by the treatment time of doxorubicin. That is, the immunostaining was performed in the same manner as described above, except that MCF-7 cells were charged with a medium containing C-K or PPD (10 μg/mL) and cultured for 24 hours, and the medium was replaced with a medium containing doxorubicin (5 μg/mL), and the cells which were cultured for 0 hours, 0.5 hours, 1 hour, 2 hours, 4 hours, or 6 hours were used. Then, the number of cells in which cytochrome-C was released from mitochondria to cytoplasm was measured (FIG. 4B). In particular, an experimental group not treated with ginsenoside was used as a control.

MCF-7 cells [2] = test: WST-1 viability assay, PPD-type ginsenoside compounds alone; type: cell-based, human; conditions: 0-200 μg/mL, 24 hours, FIG. 1
Description: First, MCF-7 cells, a human breast cancer cell line, were inoculated into DMEM medium containing 10% FBS and 1% penicillin/streptomycin, cultured in conditions of 5% CO2 and 37° C. When the cultured MCF-7 cells were saturated the cells were sub-cultured at intervals of 3 days to 5 days.
Then, the cultured MCF-7 cells were treated with various concentrations (0 μg/mL, 5 μg/mL, 10 μg/mL, 20 μg/mL, 50 μg/mL, 100 μg/mL, or 200 μg/mL) of PPD-type ginsenoside compounds (F2, Rh2, C-K, or PPD) for 24 hours, and the viability of these cells was measured by performing WST-1 assay on the MCF-7 cells (FIG. 1). In particular, WST-1 assay was performed by inoculating each of the MCF-7 cells in a medium containing 10% EZ-Cytox and reacting at 37° C. for 1.5 hours. The level of water-soluble formazan dye produced by the viable cells was measured by absorbance at 450 nm and the results were analyzed to calculate the cell viability of the cells.

MCF-7 cells [3] = test: WST-1 viability assay, ginsenoside pretreatment followed by doxorubicin or tamoxifen; type: cell-based; conditions: for effect on anticancer activity of doxorubicin: then doxorubicin 5 μg/mL 24 hours, FIG. 2A; for anticancer activity of doxorubicin with ginsenoside compared to doxorubicin alone: ginsenoside 10 μg/mL, doxorubicin 0-50 μg/mL
Description: Specifically, each of the PPD-type ginsenoside compounds (F2, Rh2, C-K, or PPD) at a concentration of 10 μg/mL was added to MCF-7 cells, cultured for 12 hours, and treated with 20 μM tamoxifen or doxorubicin (5 μg/mL) and cultured for 24 hours. Upon completion of the cultivation, the viability of MCF-7 cells was compared by WST-1 assay (FIG. 2A).
In this regard, to determine whether the C-K or PPD affects the treatment concentration of doxorubicin, the PPD-type ginsenoside compound (C-K or PPD) was added to the MCF-7 cells at a concentration of 10 μg/mL and cultured for 12 hours. Then, the MCF-7 cells were treated with doxorubicin at various concentrations (0 μg/mL, 0.1 μg/mL, 0.5 μg/mL, 1 μg/mL, 2 μg/mL, 5 μg/mL, 10 μg/mL, and 50 μg/mL) and cultured for 24 hours. Upon completion of the culture, the viability of the MCF-7 cells and the LC50 values calculated therefrom were compared by WST-1 assay (FIG. 2B).

[4] = system: phosphorylated JNK, cleaved-PARP, cleaved-caspase-9 in MCF-7 cells; test: Western blot of apoptosis-related proteins; type: cell-based, human; conditions: for level of cleaved-caspase-9 / levels of phosphorylated JNK and cleaved-PARP: ginsenoside 10 μg/mL with doxorubicin 5 μg/mL
Description: MCF-7 cells were charged with a medium containing C-K or PPD (10 μg/mL) and cultured for 12 hours, and the medium was replaced with a medium containing C-K or PPD (10 μg/mL) and doxorubicin (0 μg/mL or 5 μg/mL) and cultured for 24 hours. The cells, upon completion of culture, were disrupted and western blot analyses were performed treated with respect to anti-phosphorylated JNK antibody, anti-PARP antibody, anti-cleaved-PARP antibody, and anti-caspase-9 antibody or anti-cleaved-caspase-9 antibody (FIG. 3A).
Accordingly, MCF-7 cells were charged with a medium containing PPD (10 μg/mL) and cultured for 12 hours, and the medium was replaced with a medium containing PPD (10 μg/mL) and doxorubicin (5 μg/mL) and cultured for 0 hours, 0.5 hours, 1 hour, 2 hours, 4 hours, or 6 hours. The same western blot analysis was performed using the cultured cells (FIG. 3B). In particular, as a comparative group, cells cultured in a medium containing doxorubicin alone were used instead of the medium containing PPD and doxorubicin.

MCF-7 cells [5] = test: Anticancer activity with PARP inhibitor or caspase-9 inhibitor pretreatment; type: cell-based, human; conditions: FIG. 3C; for anticancer activity with PARP activity inhibitor, ginsenoside and doxorubicin treated simultaneously: 3-AB pretreatment, ginsenoside 10 μg/mL, doxorubicin 5 μg/mL
Description: Specifically, a medium containing C-K or PPD (10 μg/mL) was added to MCF-7 cells pretreated with Z-LEHD-FMK (i.e., an inhibitor of caspase-9) or 3-AB (i.e., an inhibitor of PARP) and cultured for 12 hours. The medium was then replaced with a medium containing doxorubicin (0 μg/mL or 5 μg/mL) and cultured for 24 hours. The same western blot analysis was performed using the cultured cells (FIG. 3C).

[6] = system: Drp1, Fis1, OPA-3, Mfn1, Mfn2, OPA1 in MCF-7 cells; test: Western blot of mitochondrial fission and fusion proteins; type: cell-based, human; conditions: ginsenoside 10 μg/mL, 24 hours, FIG. 5B
Description: Accordingly, western blot analysis was performed with respect to each of the cultured cells and the expression levels of the proteins (Drp1, Fis1, and OPA-3) involved in mitochondrial fission and those of the proteins (Mfn1, Mfn2, and OPA1) involved in mitochondrial fusion were compared (FIG. 5B).

[7] = system: mitochondria of MCF-7 cells; test: Mitochondria immunostaining with anti-Tom-20 antibody; type: cell-based, human; conditions: ginsenoside 10 μg/mL, 24 hours, FIG. 5A
Description: That is, MCF-7 cells were charged with a medium containing C-K or PPD (10 μg/mL) and cultured for 24 hours. The cells, upon completion of culture, were fixed with 4% paraformaldehyde, perforated by adding 0.5% Triton X-100 solution thereto, and mitochondria of the cells were immunostained with anti-Tom-20 antibody. Upon completion of staining, the cells were washed with PBS and then photographed using a confocal microscope to measure the levels of fluorescence developed (FIG. 5A).

MCF-7 cells [8] = test: WST-1 viability assay in siRNA-treated cells with doxorubicin or tamoxifen; type: cell-based, human; conditions: 5 μM doxorubicin or 20 μM tamoxifen, 24 hours, FIG. 6B; for change of anticancer activity where mitochondrial fission was induced by Mfn1 or Mfn2 siRNA: Mfn2 versus Mfn1 inhibition; for anticancer activity (viability of MCF-7 cells): siRNA-introduced cells
Description: Meanwhile, each of the synthesized siRNAs was introduced into MCF-7 cells and cultured for 12 hours. The cells were cultured further for 48 hours in a normal medium containing no siRNA, treated with 5 μM doxorubicin or 20 μM tamoxifen, and cultured for 24 hours. Upon completion of culture, the viability of the MCF-7 cells was compared by WST-1 assay (FIG. 6B). In particular, an experimental group not treated with doxorubicin or tamoxifen was used as a control.

[9] = ginsenoside 10 μg/mL 24 hours, FIG. 4A
[10] = ginsenoside 10 μg/mL 24 hours, then doxorubicin 5 μg/mL

Compound	level of cytochrome-C release compared to doxorubicin treatment alone [1, 9]	cells in which cytochrome-C was released, of the entire cells [1, 10] [%]	anticancer activity (viability of MCF-7 cells) (MCF-7 cells [2])	effect on anticancer activity of doxorubicin (MCF-7 cells [3]; ginsenoside 10 μg/mL 12 hours)	anticancer activity of doxorubicin with ginsenoside compared to doxorubicin alone (MCF-7 cells [3]; FIG. 2B)	level of cleaved-caspase-9 ([4]; 24 hours, FIG. 3A)	levels of phosphorylated JNK and cleaved-PARP ([4]; 24 hours, FIG. 3A)	anticancer activity with PARP activity inhibitor, ginsenoside and doxorubicin treated simultaneously (MCF-7 cells [5])	expression level of Mfn2 (mitochondrial fusion protein) [6]	expression level of OPA-3 (mitochondrial fission protein) [6]	mitochondrial damage [7]	change of anticancer activity where mitochondrial fission was induced by Mfn1 or Mfn2 siRNA (MCF-7 cells [8])	anticancer activity (viability of MCF-7 cells) (MCF-7 cells [8])	also measured
CC(C)=CCC[C@](C)(O[C@@H]1OC(CO)[C@@H](O)C(O)C1O)C1CC[C@]2(C)C1[C@H](O)CC1[C@@]3(C)CCC(O)C(C)(C)C3CC[C@]12C (stereo partly shown) [C-K, compound-K]	increased the level of cytochrome-C release	20	relatively excellent anticancer activity	could enhance the anticancer activity of doxorubicin	increased	significantly increased	not affected	slightly recovered	decreased	increase	damage was observed	–	–	–
CC(C)=CCC[C@](C)(O[C@@H]1O[C@H](CO)[C@@H](O)[C@H](O)[C@H]1O)[C@H]1CC[C@]2(C)[C@@H]1[C@H](O)C[C@@H]1[C@@]3(C)CC[C@H](O[C@@H]4O[C@H](CO)[C@@H](O)[C@H](O)[C@H]4O)C(C)(C)[C@@H]3CC[C@]12C [F2, reference compound]	–	–	–	no particular effect on doxorubicin	–	–	–	–	–	–	–	–	–	LC50 of doxorubicin treated simultaneously with ginsenoside (MCF-7 cells [3]; ginsenoside 10 μg/mL 12 hours, then doxorubicin 0-50 μg/mL 24 hours, FIG. 2B): about 10 μg/mL
CC(C)=CCC[C@](C)(O)[C@H]1CC[C@]2(C)[C@@H]1[C@H](O)C[C@@H]1[C@@]3(C)CC[C@H](O)C(C)(C)[C@@H]3CC[C@]12C [PPD, protopanaxadiol]	increased the level of cytochrome-C release	43	relatively excellent anticancer activity	could enhance the anticancer activity of doxorubicin	increased	significantly increased	not affected	slightly recovered	decreased	increase	damage was observed	–	–	formation of cleaved-PARP and cleaved-caspase-9 according to treatment time ([4]; PPD 10 μg/mL with doxorubicin 5 μg/mL, 0-6 hours, versus doxorubicin alone, FIG. 3B): formed more rapidly
COc1cccc2c1C(=O)c1c(O)c3c(c(O)c1C2=O)C[C@@](O)(C(=O)CO)C[C@@H]3O[C@H]1C[C@H](N)[C@H](O)[C@H](C)O1 [doxorubicin, reference compound]	–	–	–	–	–	–	–	–	–	–	–	further increased	significantly high level of anticancer activity	cells in which cytochrome-C was released, of the entire cells ([1]; doxorubicin 5 μg/mL alone (control)): 7%; level of cytochrome-C release compared to no doxorubicin treatment ([1]; doxorubicin 5 μg/mL, 4 hours, FIG. 4A): increased the level of cytochrome-C release; CC50 (MCF-7 cells [3]; Homo sapiens, MCF7, 24 h, read-out: LC50 of doxorubicin): ~10 µg/mL (≈ 18.4 µM); levels of phosphorylated JNK, cleaved-PARP, and cleaved-caspase-9 ([4]; doxorubicin 5 μg/mL, 24 hours, FIG. 3A): increased; anticancer effect of doxorubicin with PARP or caspase-9 activity inhibitor (MCF-7 cells [5]; Z-LEHD-FMK or 3-AB pretreatment, doxorubicin 5 μg/mL 24 hours): inhibited
CC/C(=C(\c1ccccc1)c1ccc(OCCN(C)C)cc1)c1ccccc1 [tamoxifen]	–	–	–	–	–	–	–	–	–	–	–	no difference in anticancer activity	showed anticancer activity	–
